Reference: ChEMBL document CHEMBL1152294, “Identification of KD5170: a novel mercaptoketone-based histone deacetylase inhibitor” (Bioorg Med Chem Lett, 2008)
≈ marks a conversion by molar mass, not a printed value. Calls of active or inactive are those of the source. The rule behind the calls is not given here.

Key:
[1] = target: Histone deacetylase; assay: Inhibition of HDAC in human HeLa cells assessed as histone H3 hyperacetylation; assay type: cell-based
[2] = system: HCT-116; assay: Cytotoxicity against human HCT116 cells; assay type: functional, cell-based
[3] = (§1) Cytotoxicity against human […] cells; assay type: functional, cell-based
[4] = system: Mus musculus; assay: Induction of histone H3 hyperacetylation in human HCT116 cells xenografted in nude mouse at 42 mg/kg, iv by immunoblotting relative to control; assay type: functional, HCT-116
[5] = system: HCT-116; assay: Antitumor activity against human HCT116 cells xenografted in nude mouse assessed as tumor growth inhibition at 84 mg/kg, po QOD for 14 days relative to control; assay type: functional; set-up: scale not given: the % may be the effect or the level left
[6] = Cytotoxicity against human MJ cells; assay type: functional, cell-based
[7] = system: HL-60; assay: Cytotoxicity against human HL60 cells; assay type: functional, cell-based
[8] = system: MDA-MB-435; assay: Cytotoxicity against human MDA-MB-435 cells; assay type: functional, cell-based
[9] = system: NCI-H460; assay: Cytotoxicity against human H460 cells; assay type: functional, cell-based
[10] = system: Mus musculus; assay: Induction of histone H3 hyperacetylation in human HCT116 cells xenografted in nude mouse at 42 mg/kg, po by immunoblotting relative to control; assay type: functional, HCT-116
[11] = system: HT-29; assay: Cytotoxicity against human HT-29 cells; assay type: functional, cell-based
[12] = system: PC-3; assay: Cytotoxicity against human PC3 cells; assay type: functional, cell-based
[13] = system: HCT-116; assay: Antitumor activity against human HCT116 cells xenografted in nude mouse assessed as tumor growth inhibition at 42 mg/kg, po QOD for 14 days relative to control; assay type: functional; set-up: scale not given: the % may be the effect or the level left
[14] = system: SK-OV-3; assay: Cytotoxicity against human SKOV3 cells; assay type: functional, cell-based
[15] = system: 786-0; assay: Cytotoxicity against human 786-0 cells; assay type: functional, cell-based
[16] = target: Cytochrome P450 2C9 (Homo sapiens, UniProt P11712); assay: Inhibition of CYP2C9; assay type: ADME
Chain of Cytochrome P450 2C9 (P11712 whole entry): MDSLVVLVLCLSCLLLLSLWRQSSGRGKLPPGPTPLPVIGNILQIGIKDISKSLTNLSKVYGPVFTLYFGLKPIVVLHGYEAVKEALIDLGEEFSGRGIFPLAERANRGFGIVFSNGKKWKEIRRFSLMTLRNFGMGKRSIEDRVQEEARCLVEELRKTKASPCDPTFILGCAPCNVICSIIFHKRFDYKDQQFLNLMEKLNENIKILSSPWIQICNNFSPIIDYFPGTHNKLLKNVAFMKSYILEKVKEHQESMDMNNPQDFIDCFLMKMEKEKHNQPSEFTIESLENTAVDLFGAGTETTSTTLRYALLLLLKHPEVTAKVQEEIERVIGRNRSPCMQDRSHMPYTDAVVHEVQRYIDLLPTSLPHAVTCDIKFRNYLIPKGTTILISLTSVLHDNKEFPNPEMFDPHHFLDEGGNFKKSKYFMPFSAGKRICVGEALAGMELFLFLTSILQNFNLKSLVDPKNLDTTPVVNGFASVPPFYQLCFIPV

[17] = target: Cytochrome P450 3A4 (Homo sapiens, UniProt P08684); assay: Inhibition of CYP3A4; assay type: ADME
Chain of Cytochrome P450 3A4 (P08684 whole entry): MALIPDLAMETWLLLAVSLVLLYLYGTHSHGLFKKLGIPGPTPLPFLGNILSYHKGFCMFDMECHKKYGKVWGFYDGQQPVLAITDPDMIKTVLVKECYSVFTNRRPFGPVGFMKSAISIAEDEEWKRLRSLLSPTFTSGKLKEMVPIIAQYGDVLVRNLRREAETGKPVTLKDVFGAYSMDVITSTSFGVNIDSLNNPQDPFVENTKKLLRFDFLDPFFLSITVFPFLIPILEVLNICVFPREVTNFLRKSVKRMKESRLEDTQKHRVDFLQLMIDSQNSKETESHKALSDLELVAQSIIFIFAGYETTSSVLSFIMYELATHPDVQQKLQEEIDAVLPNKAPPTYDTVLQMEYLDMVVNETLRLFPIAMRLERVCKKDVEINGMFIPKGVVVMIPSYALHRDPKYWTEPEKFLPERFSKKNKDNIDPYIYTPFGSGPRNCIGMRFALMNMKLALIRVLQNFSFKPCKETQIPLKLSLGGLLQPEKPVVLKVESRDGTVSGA

[18] = target: Voltage-gated inwardly rectifying potassium channel KCNH2 (Homo sapiens, UniProt Q12809); assay: Inhibition of human ERG by patch-clamp assay
Chain of Voltage-gated inwardly rectifying potassium channel KCNH2 (Q12809 whole entry): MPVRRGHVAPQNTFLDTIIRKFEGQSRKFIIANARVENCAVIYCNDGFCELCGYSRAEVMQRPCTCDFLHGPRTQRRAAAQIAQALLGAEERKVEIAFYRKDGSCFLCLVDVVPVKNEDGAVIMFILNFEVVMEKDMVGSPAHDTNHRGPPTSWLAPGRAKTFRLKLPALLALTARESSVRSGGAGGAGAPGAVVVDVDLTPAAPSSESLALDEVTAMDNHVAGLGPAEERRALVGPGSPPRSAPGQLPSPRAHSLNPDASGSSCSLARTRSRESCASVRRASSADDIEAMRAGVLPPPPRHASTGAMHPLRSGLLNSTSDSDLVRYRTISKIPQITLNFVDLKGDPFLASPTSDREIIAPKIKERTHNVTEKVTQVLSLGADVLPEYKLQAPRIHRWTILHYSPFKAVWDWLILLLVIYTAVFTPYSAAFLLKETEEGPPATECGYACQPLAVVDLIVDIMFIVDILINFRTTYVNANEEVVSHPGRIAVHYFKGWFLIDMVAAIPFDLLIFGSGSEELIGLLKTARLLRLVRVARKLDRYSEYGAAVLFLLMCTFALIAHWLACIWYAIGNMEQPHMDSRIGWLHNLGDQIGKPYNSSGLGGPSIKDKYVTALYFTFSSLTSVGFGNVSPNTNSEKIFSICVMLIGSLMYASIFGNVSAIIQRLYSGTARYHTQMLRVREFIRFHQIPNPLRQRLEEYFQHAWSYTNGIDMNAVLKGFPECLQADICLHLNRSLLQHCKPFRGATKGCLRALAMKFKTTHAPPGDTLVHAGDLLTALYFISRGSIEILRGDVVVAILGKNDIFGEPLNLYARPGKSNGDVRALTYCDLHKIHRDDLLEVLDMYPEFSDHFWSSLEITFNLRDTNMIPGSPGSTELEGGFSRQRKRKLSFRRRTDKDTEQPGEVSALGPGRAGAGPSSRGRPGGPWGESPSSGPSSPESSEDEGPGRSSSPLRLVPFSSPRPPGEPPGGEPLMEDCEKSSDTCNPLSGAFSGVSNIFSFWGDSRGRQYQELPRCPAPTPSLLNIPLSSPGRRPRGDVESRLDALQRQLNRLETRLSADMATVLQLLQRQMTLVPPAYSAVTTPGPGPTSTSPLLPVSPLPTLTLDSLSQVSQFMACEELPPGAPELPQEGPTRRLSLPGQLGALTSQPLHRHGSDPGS

[19] = system: Mus musculus; assay: Induction of histone H3 hyperacetylation in human HCT116 cells xenografted in nude mouse at 50 mg/kg, po by immunoblotting relative to control; assay type: functional, HCT-116
[20] = target: Cytochrome P450 2D6 (Homo sapiens, UniProt P10635); assay: Inhibition of CYP2D6; assay type: ADME
Chain of Cytochrome P450 2D6 (P10635 whole entry): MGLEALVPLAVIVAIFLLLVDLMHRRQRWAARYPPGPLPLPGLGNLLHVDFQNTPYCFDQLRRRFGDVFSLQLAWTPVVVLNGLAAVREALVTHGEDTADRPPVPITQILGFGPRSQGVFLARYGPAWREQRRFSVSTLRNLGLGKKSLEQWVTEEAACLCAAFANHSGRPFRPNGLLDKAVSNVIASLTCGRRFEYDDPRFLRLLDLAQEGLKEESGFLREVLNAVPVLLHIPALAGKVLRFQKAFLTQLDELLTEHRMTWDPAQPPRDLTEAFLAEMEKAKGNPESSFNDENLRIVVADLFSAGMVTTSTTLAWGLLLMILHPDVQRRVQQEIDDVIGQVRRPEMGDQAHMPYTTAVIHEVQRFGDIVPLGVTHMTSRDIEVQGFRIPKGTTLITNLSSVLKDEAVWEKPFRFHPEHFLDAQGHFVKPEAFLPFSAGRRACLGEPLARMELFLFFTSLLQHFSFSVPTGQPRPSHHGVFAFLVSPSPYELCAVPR

[21] = target: T1, Cytochrome P450 1A2 (Homo sapiens, UniProt P05177); assay: Inhibition of CYP1A2; assay type: ADME
T1 sequence (P05177 whole entry): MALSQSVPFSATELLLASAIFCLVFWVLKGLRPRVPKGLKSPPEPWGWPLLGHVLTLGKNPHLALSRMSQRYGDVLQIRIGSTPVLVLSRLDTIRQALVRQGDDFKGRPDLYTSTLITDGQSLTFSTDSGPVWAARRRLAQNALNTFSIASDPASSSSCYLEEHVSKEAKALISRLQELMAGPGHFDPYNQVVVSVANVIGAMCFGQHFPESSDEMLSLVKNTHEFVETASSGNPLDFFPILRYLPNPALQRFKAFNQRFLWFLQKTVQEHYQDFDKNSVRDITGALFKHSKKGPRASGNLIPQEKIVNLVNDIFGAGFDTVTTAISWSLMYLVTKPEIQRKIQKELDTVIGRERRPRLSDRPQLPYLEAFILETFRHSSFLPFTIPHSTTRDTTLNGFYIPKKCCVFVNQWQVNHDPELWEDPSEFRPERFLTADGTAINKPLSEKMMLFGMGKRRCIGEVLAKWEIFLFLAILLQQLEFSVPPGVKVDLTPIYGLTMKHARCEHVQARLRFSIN

[22] = Aqueous solubility of the compound; assay type: physicochemical; conditions: buffer
[23] = target: Cytochrome P450 2C19 (Homo sapiens, UniProt P33261); assay: Inhibition of CYP2C19; assay type: ADME
Chain of Cytochrome P450 2C19 (P33261 whole entry): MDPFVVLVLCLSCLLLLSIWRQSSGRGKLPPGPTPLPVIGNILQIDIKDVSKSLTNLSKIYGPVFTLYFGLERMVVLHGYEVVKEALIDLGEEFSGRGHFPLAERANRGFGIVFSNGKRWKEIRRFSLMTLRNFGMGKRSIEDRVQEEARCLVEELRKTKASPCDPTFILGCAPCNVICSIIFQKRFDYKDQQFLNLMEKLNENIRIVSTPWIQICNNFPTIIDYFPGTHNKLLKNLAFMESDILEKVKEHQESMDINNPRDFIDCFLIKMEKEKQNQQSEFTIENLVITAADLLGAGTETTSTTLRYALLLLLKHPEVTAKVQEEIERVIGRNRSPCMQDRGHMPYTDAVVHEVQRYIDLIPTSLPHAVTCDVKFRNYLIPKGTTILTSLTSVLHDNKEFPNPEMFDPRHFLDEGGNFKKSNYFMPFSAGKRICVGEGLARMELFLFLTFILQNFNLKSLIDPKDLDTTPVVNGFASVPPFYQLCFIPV

[24] = system: U226; assay: as §1; assay type: functional, cell-based
[25] = system: Mus musculus; assay: Induction of histone H3 hyperacetylation in human HCT116 cells xenografted in nude mouse at 30 mg/kg, po after 8 hrs by immunoblotting relative to control; assay type: functional, organism-based; set-up: dose 30 mg/kg; conditions: HCT-116
[26] = system: Mus musculus; assay: Induction of histone H3 hyperacetylation in human HCT116 cells xenografted in nude mouse at 30 mg/kg, po after 4 hrs by immunoblotting relative to control; assay type: functional, organism-based; set-up: dose 30 mg/kg; conditions: HCT-116

EC50 [1] [nM] | SMILES | EC50 [2] [nM] | EC50 [3] [nM] | also measured
120 | COCCCOc1ccc(S(=O)(=O)Nc2ccc(C(=O)CSC(C)=O)cn2)cc1 | 5300 | 29000 | 
45 | CC(=O)SCC(=O)c1ccc(NS(=O)(=O)c2ccc(OCCCN(C)C)cc2)nc1 [listing 1 of 2 here] | 140 | 180 | fold change (FC) [4]: 12; Activity [5]: 25%; EC50 [6]: 170 nM; EC50 [7]: 390 nM; EC50 [8]: 180 nM; EC50 [9]: 230 nM; fold change (FC) [10]: 9; EC50 [11]: 1000 nM; EC50 [12]: 740 nM; Activity [13]: 44%; EC50 [14]: 760 nM; EC50 [15]: 590 nM
110 | CC(=O)SCC(=O)c1ccc(NS(=O)(=O)c2ccc(OCCCO)cc2)nc1 | 8600 |  | 
29 | CC(=O)SCC(=O)c1ccc(NS(=O)(=O)c2ccc(OCCCCN(C)C)cc2)nc1 | 280 | 120 | 
93 | CC(=O)SCC(=O)c1ccc(NS(=O)(=O)c2ccc(OCCN(C)C)cc2)nc1 | 660 |  | Activity [24]: inactive
29 | COc1ccc(S(=O)(=O)Nc2ccc(C(=O)CSC(C)=O)cn2)cc1 | 540 |  | 

The remaining lines, values behind:

SMILES | EC50 [1] [nM] | EC50 [2] [nM] | EC50 [3] [nM] | also measured
CC(=O)SCC(=O)c1ccc(NS(=O)(=O)c2ccc(OCc3ccccn3)cc2)nc1 | 220 | 420 |  | 
CC(=O)SCC(=O)c1ccc(NS(=O)(=O)c2ccc(OCCCN3CCCC3)cc2)nc1 | 61 | 820 | 400 | 
CC(=O)SCC(=O)c1ccc(NS(=O)(=O)c2ccc3c(c2)COOC3)nc1 | 38 | 1200 | 2000 | EC50 [16]: 10000 nM; EC50 [17]: > 50000 nM; EC50 [18]: > 30000 nM; fold change (FC) [19]: 5; EC50 [20]: > 50000 nM; EC50 [21]: > 50000 nM; solubility [22]: 200 µg/mL (≈ 490 µM); EC50 [23]: > 50000 nM
CC(=O)SCC(=O)c1ccc(NS(=O)(=O)c2ccc(OCCCN3CCOCC3)cc2)nc1 | 67 | 330 | 19000 | 
CC(=O)SCC(=O)c1ccc(NS(=O)(=O)c2ccc(OC3CCN(C)CC3)cc2)nc1 | 44 | 180 | 300 | 
Br.CC(=O)SCC(=O)c1ccc(NS(=O)(=O)c2ccc(OCCCN(C)C)cc2)nc1 |  |  |  | EC50 [16]: > 50000 nM; EC50 [18]: > 30000 nM; EC50 [20]: > 50000 nM; EC50 [21]: > 50000 nM; solubility [22]: 10000 µg/mL; EC50 [23]: > 50000 nM
CC(=O)SCC(=O)c1ccc(NS(=O)(=O)c2ccc(OCCCN3CCCCC3)cc2)nc1 | 53 | 1000 | 800 | 
CC(=O)SCC(=O)c1ccc(NS(=O)(=O)c2ccc(OC3CCCN(C)C3)cc2)nc1 (stereo not given) | 110 | 3700 | 1200 | 
CC(=O)SCC(=O)c1ccc(NS(=O)(=O)c2ccc(OCCCN(C)C)cc2)nc1 [listing 2 of 2 here] |  |  |  | Activity [25]: Active; Activity [26]: Active
CC(=O)SCC(=O)c1ccc(NS(=O)(=O)c2ccc(OCCCc3ccccn3)cc2)nc1 | 220 |  |  | 
COc1cccc(S(=O)(=O)Nc2ccc(C(=O)CSC(C)=O)cn2)c1 | 190 | 4300 |  | 
CC(=O)SCC(=O)c1ccc(NS(=O)(=O)c2ccc(OCCc3ccccn3)cc2)nc1 | 190 | 750 | 9600 | 
